Measurements reported in paper PMC8201443 (Journal of Medicinal Chemistry, 2021).
“Also recorded” adds a separate entry of the source. Where two headings read alike, the source gives them in different places. Each block holds one molecule with its values, some of them ahead of it.

What was measured:
[1] = system: MV4-11, MHH-CALL-4, HD-MB03, MB002 and MB004 cells; assay type: cell-based, human
[2] = system: MV4-11 cells stably expressing GSPT1(G575N)-FLAG; assay type: cell-based, human
[3] = Liver microsomes stability assay, mouse; assay type: in vitro ADME; conditions: CD-1, mouse, pH 7.4
MV4-11 cells [4] = experiment: TMT quantitative proteomics in MV4-11 cells; assay type: cell-based, human; conditions: 1 μM, 4 h
[5] = Liver microsomes stability assay, human; assay type: in vitro ADME; conditions: pooled liver microsomes, pH 7.4
MB002 cells = experiment: Cell viability; assay type: cell-based; conditions: Homo sapiens, MB002, 72 h, read-out: EC50 (nM) MB002
IKZF1 [6] = biological target: T1, IKZF1 (Homo sapiens, UniProt Q13422); experiment: Immunoblot, IKZF1 degradation in MHH-CALL-4 cells; assay type: cell-based; conditions: any concentration tested
caspase 3/7 = experiment: Caspase-Glo 3/7 activity assay in MV4-11 cells; assay type: cell-based, human; conditions: MV4-11, 10 and 100 nM; timepoints 4, 8 and 24 h
IKZF1 [7] = biological target: T1, IKZF1; conditions: for IKZF1 protein levels in GSPT1(G575N) mutant cell line (in words): MV4-11 GSPT1(G575N)-FLAG cells, 24 h; for IKZF1 degradation after 4 h (in words): MV4-11 cells, any concentration tested
[8] = system: CRBN knockout MV4-11 cells; experiment: Cell viability, wild-type vs CRBN knockout MV4-11 cells; assay type: cell-based, human; conditions: 3 days
IKZF1(ZF2)-CRBN/DDB1 = IKZF1(ZF2)-CRBN/DDB1 (Homo sapiens, UniProt Q96SW2); experiment: AlphaScreen assay, IKZF1; assay type: biochemical; conditions: dose response up to highest concentration
MV4-11 cells [9] = experiment: Lenalidomide competition assay, MV4-11 viability; assay type: cell-based, human; conditions: MV4-11, co-treatment with 10 μM lenalidomide, 3 days
GSPT1(G575N) = GSPT1(G575N) (Homo sapiens, UniProt P15170, G437N); assay type: cell-based
MV4-11 cells [10] = experiment: Cell viability; assay type: cell-based, human; conditions: for activity in cells (in words): cellular assays of Table 2; for EC50: Homo sapiens
GSPT1 = GSPT1 (Homo sapiens, UniProt P15170+Q96SW2); experiment: Immunoblot, GSPT1 degradation in MV4-11 cells; assay type: cell-based; conditions: MV4-11, 4 h
hGSPT1-HiBit = hGSPT1-HiBit (Homo sapiens, UniProt P15170+Q96SW2); experiment: hGSPT1 HiBiT assay in HEK293 cells; assay type: cell-based; conditions: SAR discussion of Table 2
[11] = more potent than lenalidomide; cited from earlier work

T1 sequence (Q96SW2 whole entry partner): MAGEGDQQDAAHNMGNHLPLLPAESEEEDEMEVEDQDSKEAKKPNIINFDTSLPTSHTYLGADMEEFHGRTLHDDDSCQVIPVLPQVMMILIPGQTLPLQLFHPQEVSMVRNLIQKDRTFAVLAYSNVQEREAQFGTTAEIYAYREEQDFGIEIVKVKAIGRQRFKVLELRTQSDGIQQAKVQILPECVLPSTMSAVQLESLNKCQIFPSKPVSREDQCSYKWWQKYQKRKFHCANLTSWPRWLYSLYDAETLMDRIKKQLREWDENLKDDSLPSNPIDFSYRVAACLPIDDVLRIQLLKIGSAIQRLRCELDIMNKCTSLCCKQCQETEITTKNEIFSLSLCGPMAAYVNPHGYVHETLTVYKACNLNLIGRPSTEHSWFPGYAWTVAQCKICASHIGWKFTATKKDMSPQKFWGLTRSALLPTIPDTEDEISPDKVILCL
T1 sequence (Q16531 whole entry partner): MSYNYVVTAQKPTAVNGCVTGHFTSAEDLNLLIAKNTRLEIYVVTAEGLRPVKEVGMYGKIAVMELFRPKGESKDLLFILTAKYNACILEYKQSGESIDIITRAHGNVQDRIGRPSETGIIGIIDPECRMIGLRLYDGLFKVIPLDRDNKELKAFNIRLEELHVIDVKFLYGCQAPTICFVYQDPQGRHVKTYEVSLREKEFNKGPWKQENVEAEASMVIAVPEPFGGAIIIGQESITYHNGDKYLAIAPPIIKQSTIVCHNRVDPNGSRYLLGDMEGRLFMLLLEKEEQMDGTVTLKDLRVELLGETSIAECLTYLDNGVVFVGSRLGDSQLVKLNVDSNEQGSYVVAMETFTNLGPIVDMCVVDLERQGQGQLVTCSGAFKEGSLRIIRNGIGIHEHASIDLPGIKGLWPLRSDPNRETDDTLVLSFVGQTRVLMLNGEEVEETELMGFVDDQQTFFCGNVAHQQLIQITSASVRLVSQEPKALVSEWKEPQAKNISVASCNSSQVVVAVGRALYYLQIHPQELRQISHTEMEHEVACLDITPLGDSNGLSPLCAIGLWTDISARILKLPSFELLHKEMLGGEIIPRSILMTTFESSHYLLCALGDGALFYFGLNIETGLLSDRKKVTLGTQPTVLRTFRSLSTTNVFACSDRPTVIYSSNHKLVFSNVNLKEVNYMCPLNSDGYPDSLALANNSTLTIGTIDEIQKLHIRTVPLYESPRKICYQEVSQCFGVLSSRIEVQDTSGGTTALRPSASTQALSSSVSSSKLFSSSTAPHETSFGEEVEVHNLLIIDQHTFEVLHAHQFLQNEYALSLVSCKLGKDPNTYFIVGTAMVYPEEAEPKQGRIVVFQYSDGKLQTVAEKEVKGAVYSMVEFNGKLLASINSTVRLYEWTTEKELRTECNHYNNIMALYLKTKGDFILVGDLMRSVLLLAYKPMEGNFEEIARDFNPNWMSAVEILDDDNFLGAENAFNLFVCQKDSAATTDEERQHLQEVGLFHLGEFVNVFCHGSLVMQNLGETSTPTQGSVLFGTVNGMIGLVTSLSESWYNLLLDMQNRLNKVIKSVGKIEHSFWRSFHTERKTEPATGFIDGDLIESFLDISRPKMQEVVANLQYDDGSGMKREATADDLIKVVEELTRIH
T1 sequence (Q13422 whole entry): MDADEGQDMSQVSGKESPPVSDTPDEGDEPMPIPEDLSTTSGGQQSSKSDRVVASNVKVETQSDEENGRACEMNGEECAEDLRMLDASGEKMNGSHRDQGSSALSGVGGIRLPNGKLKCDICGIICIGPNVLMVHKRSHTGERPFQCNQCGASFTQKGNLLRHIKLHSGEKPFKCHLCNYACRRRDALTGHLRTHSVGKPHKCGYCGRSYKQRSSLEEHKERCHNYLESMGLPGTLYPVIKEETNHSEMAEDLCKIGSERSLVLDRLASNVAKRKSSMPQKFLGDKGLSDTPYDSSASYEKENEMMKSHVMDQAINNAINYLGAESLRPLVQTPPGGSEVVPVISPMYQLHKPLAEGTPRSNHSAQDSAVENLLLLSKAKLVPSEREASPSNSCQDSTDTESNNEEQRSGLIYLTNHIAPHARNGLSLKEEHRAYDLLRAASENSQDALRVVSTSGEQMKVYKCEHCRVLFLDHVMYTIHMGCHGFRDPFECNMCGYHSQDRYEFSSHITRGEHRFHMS
Chain of IKZF1(ZF2)-CRBN/DDB1 (Q96SW2 40-442 limits assumed): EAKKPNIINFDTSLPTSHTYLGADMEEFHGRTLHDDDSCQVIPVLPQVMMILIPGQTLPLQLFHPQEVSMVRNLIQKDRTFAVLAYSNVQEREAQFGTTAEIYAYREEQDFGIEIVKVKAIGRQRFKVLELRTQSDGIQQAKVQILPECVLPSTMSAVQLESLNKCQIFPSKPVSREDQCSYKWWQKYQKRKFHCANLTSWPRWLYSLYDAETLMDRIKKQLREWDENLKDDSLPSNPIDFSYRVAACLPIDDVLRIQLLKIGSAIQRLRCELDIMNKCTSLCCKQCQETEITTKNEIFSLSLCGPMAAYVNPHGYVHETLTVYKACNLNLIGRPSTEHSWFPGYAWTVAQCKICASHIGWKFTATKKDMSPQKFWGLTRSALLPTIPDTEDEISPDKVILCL
Chain of IKZF1(ZF2)-CRBN/DDB1 (Q16531 whole entry partner): as the sequence (Q16531 whole entry partner) above
Chain of GSPT1(G575N) (Q96SW2 whole entry partner): as the sequence (Q96SW2 whole entry partner) above
Chain of GSPT1(G575N) (Q16531 whole entry partner): as the sequence (Q16531 whole entry partner) above
Chain of GSPT1(G575N) (P15170 1-637 isoform P15170-3 G575N): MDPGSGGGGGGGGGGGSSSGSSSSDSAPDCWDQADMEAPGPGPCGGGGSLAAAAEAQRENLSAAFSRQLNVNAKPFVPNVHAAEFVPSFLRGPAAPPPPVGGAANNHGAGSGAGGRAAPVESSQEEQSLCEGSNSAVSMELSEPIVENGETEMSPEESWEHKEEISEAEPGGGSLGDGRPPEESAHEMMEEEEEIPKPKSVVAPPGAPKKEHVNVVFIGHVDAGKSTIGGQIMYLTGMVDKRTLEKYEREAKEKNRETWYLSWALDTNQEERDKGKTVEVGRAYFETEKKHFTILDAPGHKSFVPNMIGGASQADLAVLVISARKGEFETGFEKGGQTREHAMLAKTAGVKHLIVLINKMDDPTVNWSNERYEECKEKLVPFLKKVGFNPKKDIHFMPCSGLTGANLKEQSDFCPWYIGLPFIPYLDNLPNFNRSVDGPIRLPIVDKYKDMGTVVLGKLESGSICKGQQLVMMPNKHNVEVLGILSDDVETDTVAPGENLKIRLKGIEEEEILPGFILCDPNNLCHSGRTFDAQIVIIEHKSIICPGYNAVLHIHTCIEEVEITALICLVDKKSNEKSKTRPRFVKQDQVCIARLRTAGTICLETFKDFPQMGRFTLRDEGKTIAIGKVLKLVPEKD
Chain of hGSPT1-HiBit (P15170 1-637 isoform P15170-3): as the sequence (P15170 1-637 isoform P15170-3 G575N) above, with N575G counted along it
Chain of hGSPT1-HiBit (Q96SW2 whole entry): as the sequence (Q96SW2 whole entry partner) above
Chain of hGSPT1-HiBit (Q16531 whole entry partner): as the sequence (Q16531 whole entry partner) above
Chain of GSPT1 (P15170 1-637 isoform P15170-3): as the sequence (P15170 1-637 isoform P15170-3 G575N) above, with N575G counted along it
Chain of GSPT1 (Q96SW2 whole entry): as the sequence (Q96SW2 whole entry partner) above
Chain of GSPT1 (Q16531 whole entry partner): as the sequence (Q16531 whole entry partner) above

Compound: O=C1CCC(N2C(=O)c3ccccc3C2=O)C(=O)N1 (stereo not shown) [thalidomide]
- antiproliferative effect across the five cell lines (in words) [1]: insensitive

- CLint scaled at 4 h, 10 µM [3]: 12 mL/min/kg
- CLint scaled at 4 h, 10 µM [5]: 4 mL/min/kg
- IKZF1 degradation after 4 h (in words) (IKZF1 [6]): did not significantly degrade IKZF1
- IKZF1 protein levels in GSPT1(G575N) mutant cell line (in words) (IKZF1 [7]): unaffected
- IKZF1 degradation after 4 h (in words) (IKZF1 [7]): did not significantly degrade IKZF1
- degradation of GSPT1(G575N) mutant (in words) (GSPT1(G575N)): not degraded
Compound: O=C1CCC(N2C(=O)c3ccc(NS(=O)(=O)c4ccccc4OC(F)(F)F)cc3C2=O)C(=O)N1 (stereo not shown) [compound 6, N-(2-(2,6-Dioxopiperidin-3-yl)-1,3-dioxoisoindolin-5-yl)-2-(trifluoromethoxy)benzenesulfonamide]
- antiproliferation effect in cells expressing GSPT1(G575N) (in words) [2]: completely abrogated
- abundance of CNTNAP4 and SERPINF1 (in words) (MV4-11 cells [4]): less pronounced but statistically significant reductions
- abundance of IMiD neosubstrates IKZF1/3 and CK1α (in words) (MV4-11 cells [4]): not affected
- proteins most reduced in abundance (in words) (MV4-11 cells [4]; 8927 quantified proteins): reduced most potently and selectively abundance of GSPT1 and GSPT2
- EC50 (MB002 cells): 726 nM
- timepoint at which caspase activation was observed (caspase 3/7): 8 h
- antiproliferative activity in the absence of CRBN (in words) [8]: abolished
- IKZF1(ZF2)-CRBN/DDB1 complex formation, AlphaScreen signal (in words) (IKZF1(ZF2)-CRBN/DDB1): neither 6 nor 7 showed a signal; also recorded: showed no effect even at the highest concentration
- antiproliferative effect across the five cell lines (in words) [1]: demonstrated antiproliferative activities across the panel
- antiproliferative effect in the presence of lenalidomide (in words) (MV4-11 cells [9]): abrogating the antiproliferative effects
- activity in cells (in words) (MV4-11 cells [10]): most potent compound in the series

Compound: O=C1CCC(N2C(=O)c3ccc(NS(=O)(=O)c4cccc(Cl)c4)cc3C2=O)C(=O)N1 (stereo not shown) [compound 15, 3-Chloro-N-(2-(2,6-dioxopiperidin-3-yl)-1,3-dioxoisoindolin-5-yl)benzenesulfonamide]
- activity in cells (in words) (MV4-11 cells [10]): lack of potent cell activity

Compound: Nc1cccc2c1CN(C1CCC(=O)NC1=O)C2=O (stereo not shown) [lenalidomide]
- antiproliferative effect across the five cell lines (in words) [1]: insensitive

- effect on GSPT1 protein level (in words) (GSPT1): no effects on the protein levels
- effect on IKZF1 protein level (in words) (IKZF1 [7]; immunoblot, MV4-11, 4 h): no effects on the protein levels
Compound: O=C1CCC(N2C(=O)c3ccc(NS(=O)(=O)c4cccc(OC(F)(F)F)c4)cc3C2=O)C(=O)N1 (stereo not shown) [compound 10, N-(2-(2,6-Dioxopiperidin-3-yl)-1,3-dioxoisoindolin-5-yl)-3-(trifluoromethoxy)benzenesulfonamide]
- activity in cells (in words) (MV4-11 cells [10]): no activity in cells

- IKZF1 degradation after 4 h (in words) (IKZF1 [6]): did not significantly degrade IKZF1
- IKZF1 protein levels in GSPT1(G575N) mutant cell line (in words) (IKZF1 [7]): unaffected
- IKZF1 degradation after 4 h (in words) (IKZF1 [7]): did not significantly degrade IKZF1
- degradation of GSPT1(G575N) mutant (in words) (GSPT1(G575N)): not degraded
- EC50 (MV4-11 cells [10]; MV4-11, 72 h, read-out: EC50 (nM) MV4-11): 52 nM
- EC50 (MV4-11 cells [10]; MV4-11, read-out: MV4-11 EC50 (μM)): 52 nM
Compound: Cc1c(Cl)cccc1S(=O)(=O)Nc1ccc2c(c1)C(=O)N(C1CCC(=O)NC1=O)C2=O (stereo not shown) [compound 7, 3-Chloro-N-(2-(2,6-dioxopiperidin-3-yl)-1,3-dioxoisoindolin-5-yl)-2-methylbenzenesulfonamide]
- antiproliferation effect in cells expressing GSPT1(G575N) (in words) [2]: completely abrogated
- EC50 (MB002 cells): 5010 nM
- timepoint at which caspase activation was observed (caspase 3/7): 24 h
- antiproliferative activity in the absence of CRBN (in words) [8]: abolished
- IKZF1(ZF2)-CRBN/DDB1 complex formation, AlphaScreen signal (in words) (IKZF1(ZF2)-CRBN/DDB1): neither 6 nor 7 showed a signal; also recorded: showed no effect even at the highest concentration
- antiproliferative effect across the five cell lines (in words) [1]: demonstrated antiproliferative activities across the panel
- antiproliferative effect in the presence of lenalidomide (in words) (MV4-11 cells [9]): abrogating the antiproliferative effects

Compound: Cc1ccc(S(=O)(=O)Nc2ccc3c(c2)C(=O)N(C2CCC(=O)NC2=O)C3=O)cc1Cl (stereo not shown) [compound 9, 3-Chloro-N-(2-(2,6-dioxopiperidin-3-yl)-1,3-dioxoisoindolin-5-yl)-4-methylbenzenesulfonamide]
- activity in cells (in words) (MV4-11 cells [10]): no effect in cellular assays

Compound: COc1ccccc1S(=O)(=O)Nc1ccc2c(c1)C(=O)N(C1CCC(=O)NC1=O)C2=O (stereo not shown) [compound 12, N-(2-(2,6-Dioxopiperidin-3-yl)-1,3-dioxoisoindolin-5-yl)-2-methoxybenzenesulfonamide]
- activity in cells (in words) (MV4-11 cells [10]): inactive in cells

Compound: O=C1CCC(N2C(=O)c3ccc(NS(=O)(=O)c4ccccc4)cc3C2=O)C(=O)N1 (stereo not shown) [compound 8, N-(2-(2,6-Dioxopiperidin-3-yl)-1,3-dioxoisoindolin-5-yl)benzenesulfonamide]
- activity in cells (in words) (MV4-11 cells [10]): inactive

Compound: Nc1cccc2c1C(=O)N(C1CCC(=O)NC1=O)C2=O (stereo not shown) [pomalidomide]
- antiproliferative effect across the five cell lines (in words) [1]: insensitive

- GSPT1 degradation (in words) (hGSPT1-HiBit): potent degrader of GSPT1
Compound: O=C1CCC(N2C(=O)c3ccc(NS(=O)(=O)c4ccccc4C(F)(F)F)cc3C2=O)C(=O)N1 (stereo not shown) [compound 14, N-(2-(2,6-Dioxopiperidin-3-yl)-1,3-dioxoisoindolin-5-yl)-2-(trifluoromethyl)benzenesulfonamide]

Compound: Cc1ccc(NC(=O)NCc2ccc3c(c2)CN(C2CCC(=O)NC2=O)C3=O)cc1Cl (stereo not shown) [CC-885]
- antiproliferative effect across the five cell lines (in words) [1]: displayed antiproliferative effects in all five cell lines

Compound: O=C1CC[C@H](N2Cc3c(OCc4ccc(CN5CCOCC5)cc4)cccc3C2=O)C(=O)N1 [CC-220, reference compound]
- potency in cells relative to lenalidomide [11]: 10 fold
- IKZF1(ZF2)-CRBN/DDB1 complex formation, AlphaScreen signal (in words) (IKZF1(ZF2)-CRBN/DDB1): strong dose response; also recorded: dose-dependent AlphaScreen signal

Compound: O=C1CCC(N2C(=O)c3ccc(NS(=O)(=O)c4ccc(OC(F)(F)F)cc4)cc3C2=O)C(=O)N1 (stereo not shown) [compound 11, N-(2-(2,6-Dioxopiperidin-3-yl)-1,3-dioxoisoindolin-5-yl)-4-(trifluoromethoxy)benzenesulfonamide]
- activity in cells (in words) (MV4-11 cells [10]): no activity in cells

Compound: Cc1ccccc1S(=O)(=O)Nc1ccc2c(c1)C(=O)N(C1CCC(=O)NC1=O)C2=O (stereo not shown) [compound 13, N-(2-(2,6-Dioxopiperidin-3-yl)-1,3-dioxoisoindolin-5-yl)-2-methylbenzenesulfonamide]
- activity in cells (in words) (MV4-11 cells [10]): lack of potent cell activity
